Test results published in PubChem BioAssay AID1845210 (Molecular Pharmacology Branch, DTP, NCI, 2023).

Tested on: NCI-H226 complex tumor spheroids, viability
Experiment: Anticancer human tumor NCI-H226 cell line growth inhibition;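 note: spheroids exposed to compound for 7 days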;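 for viability, T/C: 100% = DMSO vehicle control viability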
Details: for IC50: curve of first compound; for viability, T/C: stronger effect = lower value
From the text: Multicellular complex tumor spheroid response to DNA repair inhibitors in combination with DNA-damaging drugs
This study explores the anticancer activities of DNA-damaging drugs and inhibitors of DNA damage repair, both as single agents and in combinations. Complex tumor spheroids comprised of malignant cells, endothelial cells and mesenchymal stem cells served as an in vitro model for human solid tumors. This model system incorporates physiologically relevant features and patient-derived or established malignant cell lines with clinically relevant genetic alterations from many tumor types. Twenty-six patient-derived or established malignant cell lines were evaluated representing sarcoma, melanoma, small cell lung cancer (SCLC), non-small cell lung cancer (NSCLC), as well as bladder, ovarian and pancreatic cancers. The concentration ranges selected for each drug and investigational agent were based upon clinically achievable concentrations if the clinical Cmax of the agent was known.
Compounds. The drugs and compounds olaparib (NSC753686), talazoparib (NSC767125), berzosertib (NSC777718), elimusertib (NSC800525), nedisertib (NSC802822), VX-984 (NSC792969), AZD-1390 (NSC803789), temozolomide (NSC362856), topotecan (NSC609699), trabectedin (NSC813783), staurosporine (NSC755774), and gemcitabine (NSC613327) were obtained from the National Cancer Institute (NCI) Developmental Therapeutics Program Chemical Repository. The FDA-approved anticancer drug set is available from the Developmental Therapeutics Program at https://dtp.cancer.gov/organization/dscb/obtaining/available_plates.htm. […] The stock solutions were prepared in dimethyl sulfoxide (DMSO, Sigma-Aldrich, St. Louis, MO, cat. D2650) at 400-fold the tested concentration and stored at -70 degrees C. Prior to their use, the stock solutions were diluted in fresh medium and the final DMSO concentration in the assay was 0.25% (v/v). All drugs and investigational agents were tested over a range starting from a high concentration at or near the clinical Cmax and decreasing in half-log increments. If the clinical Cmax for an agent had not been determined, the highest concentration tested was 10 microM.
Cell Lines. The patient-derived cancer cell (PDC) lines: 156681-154-R-J1-PDC, 283228-195-R-J1-PDC, 287954-098-R-J1-PDC, 292921-168-R-J2-PDC, 349418-098-R-PDC, 425362-245-T-J1-PDC, 556581-035-R-J1-PDC, and BL0293-F563-PDC were received from the NCI Patient-Derived Models Repository (PDMR, https://pdmr.cancer.gov). The established cell lines HS-SY-2 (RRID:CVCL_8719), MPNST, and SYO-1 (RRID:CVCL_7146) were obtained from the Sloan Kettering Institute. The alveolar soft parts sarcoma cell line ASPS-1 (RRID:CVCL_S738) was established at the NCI and grown from internal seed stocks. The following established cell lines were purchased from the American Type Culture Collection (ATCC, Manassas, VA): G-401 (ATCC, cat. CRL-1441, RRID:CVCL_0270), SW982 (ATCC, cat. HTB-93, RRID:CVCL_1734), VA-ES-BJ (ATCC, cat. CRL-2138, RRID:CVCL_1785), NCI-H719 (ATCC, cat. CRL-5837, RRID:CVCL_1582), NCI-H196 (ATCC, cat. CRL-5823, RRID:CVCL_1509), NCI-H841 (ATCC, cat. CRL-5845, RRID:CVCL_1595), NCI-H1618 (ATCC, cat. CRL-5879, RRID:CVCL_1480), NCI-H1876 (ATCC, cat. CRL-5902, RRID:CVCL_1503), DMS 114 (ATCC, cat. CRL-2066; RRID:CVCL_1174), NCI-H211 (ATCC, cat. CRL-5824; RRID:CVCL_1529), and SW 1271 (ATCC, cat. CRL-2177, RRID:CVCL_1716). The small cell lung cancer cell line COR-L88 was purchased from Sigma-Aldrich (cat. 92031917-1VL, RRID:CVCL_1141). The non-small cell lung cancer cell lines NCI-H226 (RRID:CVCL_1544) and NCI-H322M (RRID:CVCL_1557) were established at the NCI and grown from internal seed stocks. Pooled donor human umbilical vein endothelial cells (HUVEC, Lonza, cat. CC-2519) and human mesenchymal stem cells (hMSC, Lonza, cat. PT-2501) were purchased from Lonza (Walkersville, MD).
Cell Culture. All cells were maintained in an incubator at 37 degrees C and 5% CO2 with 95% humidity. […]

[1] = second compound 0.003 µM, first compound 0.0949 µM
[2] = second compound 0.003 µM, first compound 0.3 µM
[3] = second compound 0.003 µM, first compound 0.949 µM
[4] = second compound 0.003 µM, first compound 3 µM
[5] = second compound 0.00949 µM, first compound 0.0949 µM
[6] = second compound 0.00949 µM, first compound 0.3 µM
[7] = second compound 0.00949 µM, first compound 0.949 µM
[8] = second compound 0.00949 µM, first compound 3 µM
[9] = second compound 0.03 µM, first compound 0.0949 µM
[10] = second compound 0.03 µM, first compound 0.3 µM
[11] = second compound 0.03 µM, first compound 0.949 µM
[12] = second compound 0.03 µM, first compound 3 µM
[13] = second compound 0.0949 µM, first compound 0.0949 µM
[14] = second compound 0.0949 µM, first compound 0.3 µM
[15] = second compound 0.0949 µM, first compound 0.949 µM
[16] = second compound 0.0949 µM, first compound 3 µM
[17] = second compound 0.3 µM, first compound 0.0949 µM
[18] = second compound 0.3 µM, first compound 0.3 µM
[19] = second compound 0.3 µM, first compound 0.949 µM
[20] = second compound 0.3 µM, first compound 3 µM

Row | SMILES | IC50 (second compound 0.003 µM) [µM] | IC50 (second compound 0.00949 µM) [µM] | IC50 (second compound 0.03 µM) [µM] | IC50 (second compound 0.0949 µM) [µM] | IC50 (second compound 0.3 µM) [µM] | viability, T/C [1] [%] | viability, T/C [2] [%] | viability, T/C [3] [%] | viability, T/C [4] [%] | viability, T/C [5] [%] | viability, T/C [6] [%] | viability, T/C [7] [%] | viability, T/C [8] [%] | viability, T/C [9] [%] | viability, T/C [10] [%] | viability, T/C [11] [%] | viability, T/C [12] [%] | viability, T/C [13] [%] | viability, T/C [14] [%] | viability, T/C [15] [%] | other results
1 | Cn1ncnc1[C@H]1c2n[nH]c(=O)c3cc(F)cc(c23)N[C@@H]1c1ccc(F)cc1 + CC[C@@]1(O)C(=O)OCc2c1cc1n(c2=O)Cc2cc3c(CN(C)C)c(O)ccc3nc2-1 | > 3 | > 3 | > 3 | > 3 | > 3 | 88.7 | 82.4 | 93.7 | 98.7 | 88.3 | 95.2 | 82.6 | 91.6 | 92.2 | 79.9 | 91.1 | 91.9 | 66.1 | 72.2 | 69.2 | viability, T/C (second compound 0.003 µM, first compound 0.00949 µM): 102%; viability, T/C (second compound 0.003 µM, first compound 0.03 µM): 87.8%; viability, T/C (second compound 0.00949 µM, first compound 0.00949 µM): 84.4%; viability, T/C (second compound 0.00949 µM, first compound 0.03 µM): 106%; viability, T/C (second compound 0.03 µM, first compound 0.00949 µM): 89.4%; viability, T/C (second compound 0.03 µM, first compound 0.03 µM): 80.1%; viability, T/C (second compound 0.0949 µM, first compound 0.00949 µM): 70.8%; viability, T/C (second compound 0.0949 µM, first compound 0.03 µM): 73.5%; viability, T/C [16]: 77.8%; viability, T/C (second compound 0.3 µM, first compound 0.00949 µM): 60.5%; viability, T/C (second compound 0.3 µM, first compound 0.03 µM): 59%; viability, T/C [17]: 58.9%; viability, T/C [18]: 56.5%; viability, T/C [19]: 59.2%; viability, T/C [20]: 66.9%
2 | O=C(c1cc(Cc2n[nH]c(=O)c3ccccc23)ccc1F)N1CCN(C(=O)C2CC2)CC1 + CC[C@@]1(O)C(=O)OCc2c1cc1n(c2=O)Cc2cc3c(CN(C)C)c(O)ccc3nc2-1 | > 30 | > 30 | > 30 | > 30 | > 30 | 103 | 95.8 | 100 | 106 | 94.7 | 91.2 | 95.9 | 91 | 88.9 | 90.4 | 90.1 | 91.2 | 78.4 | 74.4 | 80.2 | viability, T/C (second compound 0.003 µM, first compound 9.49 µM): 97.9%; viability, T/C (second compound 0.003 µM, first compound 30 µM): 100%; viability, T/C (second compound 0.00949 µM, first compound 9.49 µM): 85.9%; viability, T/C (second compound 0.00949 µM, first compound 30 µM): 81.1%; viability, T/C (second compound 0.03 µM, first compound 9.49 µM): 96.5%; viability, T/C (second compound 0.03 µM, first compound 30 µM): 89.9%; viability, T/C [16]: 79.8%; viability, T/C (second compound 0.0949 µM, first compound 9.49 µM): 74.9%; viability, T/C (second compound 0.0949 µM, first compound 30 µM): 78.8%; viability, T/C [17]: 68.9%; viability, T/C [18]: 68.7%; viability, T/C [19]: 72.7%; viability, T/C [20]: 66.8%; viability, T/C (second compound 0.3 µM, first compound 9.49 µM): 70.6%; viability, T/C (second compound 0.3 µM, first compound 30 µM): 60.7%
